Measurements: US9808466B2, “Macrocyclic compounds as protein kinase inhibitors” (Fundación Centro Nacional de Investigaciones Oncologicas …, priority 2011, dated 2017)
Where two headings read alike, the source gives them in different places.

Experiments:
PI3K (p110α/p85α) = target: T1, PI3K (p110α/p85α) (Homo sapiens, UniProt P42336); experiment: PI3K activity assay (ADP Hunter Plus); type: biochemical
T1 construct: purchased Carna Biosciences 07CBS-0402A
Method: The kinase activity was measured by using the commercial ADP Hunter™ Plus assay available from DiscoveRx (#33-016), which is a homogeneous assay to measure the accumulation of ADP, a universal product of kinase activity. […] Reaction was carried out for 1 hour at 25° C. Reagent A and B were sequentially added to the wells and plates were incubated for 30 min at 37° C. Fluorescence counts were read in a Victor instrument (Perkin Elmer) with the recommended settings (544 and 580 nm as excitation and emission wavelengths, respectively). Values were normalized against the control activity included for each enzyme (i.e., 100% PI3 kinase activity, without compound). These values were plotted against the inhibitor concentration and were fit to a sigmoid dose-response curve by using the Graphad software.

mTOR = target: T2, mTOR (Homo sapiens, UniProt P42345); experiment: mTOR assay (LanthaScreen kinase activity assay); type: biochemical
T2 construct: purchased Invitrogen PV4754
T2 sequence (P42345 1360-2549 limits assumed): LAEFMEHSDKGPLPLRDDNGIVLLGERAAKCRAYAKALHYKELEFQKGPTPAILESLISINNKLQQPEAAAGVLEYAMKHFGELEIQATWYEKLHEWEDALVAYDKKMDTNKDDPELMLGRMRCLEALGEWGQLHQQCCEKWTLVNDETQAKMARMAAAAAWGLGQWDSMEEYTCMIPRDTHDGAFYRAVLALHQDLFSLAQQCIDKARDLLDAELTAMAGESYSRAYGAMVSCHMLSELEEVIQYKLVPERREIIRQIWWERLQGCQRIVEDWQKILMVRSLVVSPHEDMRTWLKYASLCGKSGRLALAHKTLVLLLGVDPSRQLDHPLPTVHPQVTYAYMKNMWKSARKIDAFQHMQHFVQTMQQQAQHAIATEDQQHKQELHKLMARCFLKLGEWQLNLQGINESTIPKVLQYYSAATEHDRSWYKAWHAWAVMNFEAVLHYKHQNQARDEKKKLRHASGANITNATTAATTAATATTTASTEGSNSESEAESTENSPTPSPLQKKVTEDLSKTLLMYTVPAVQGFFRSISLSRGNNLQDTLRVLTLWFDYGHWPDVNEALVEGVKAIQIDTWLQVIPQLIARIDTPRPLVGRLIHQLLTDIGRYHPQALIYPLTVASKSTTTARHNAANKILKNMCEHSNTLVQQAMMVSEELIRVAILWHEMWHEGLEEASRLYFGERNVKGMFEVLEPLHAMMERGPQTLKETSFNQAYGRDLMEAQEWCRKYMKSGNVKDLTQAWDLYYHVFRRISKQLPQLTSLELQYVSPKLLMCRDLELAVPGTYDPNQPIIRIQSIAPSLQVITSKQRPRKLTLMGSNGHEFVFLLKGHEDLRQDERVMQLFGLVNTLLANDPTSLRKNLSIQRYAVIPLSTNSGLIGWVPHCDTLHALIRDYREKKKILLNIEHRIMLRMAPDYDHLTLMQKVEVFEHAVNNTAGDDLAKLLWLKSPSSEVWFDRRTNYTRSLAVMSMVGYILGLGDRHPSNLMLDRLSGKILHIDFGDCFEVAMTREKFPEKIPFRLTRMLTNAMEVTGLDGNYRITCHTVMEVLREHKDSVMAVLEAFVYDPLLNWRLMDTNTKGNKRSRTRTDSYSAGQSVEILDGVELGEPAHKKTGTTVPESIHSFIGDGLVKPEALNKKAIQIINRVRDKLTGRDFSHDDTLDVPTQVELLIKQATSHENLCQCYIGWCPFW
Method: The enzymatic mTOR activity was measured using a LanthaScreen™ kinase activity assay (Invitrogen). The enzyme was purchased from Invitrogen (PV4754), as well as the GFP-labeled substrate (4EBP1-GFP; PV4759) and the Tb-anti-p4EBP1(pThr46) antibody (PV4757). The assay was performed in 50 mM HEPES buffer, pH 7.5, containing 1.5 mM MnCl2, 10 mM MgCl2, 1 mM EGTA, 2.5 mM DTT and 0.01% Tween-20. The concentration of the assay components were the following: 0.24 nM mTOR kinase, 400 nM 4EBP1-GFP, […] and serial dilutions of the compound (inhibitor) to be evaluated. After 1 h incubation at room temperature, 20 mM EDTA was used to stop the reaction and terbium-labeled antibody (4 nM) added to detect phosphorylated product. The antibody associates with the phosphorylated product resulting in an increased TR-FRET value. The TR-FRET value (a dimensionless number) was calculated as the ratio of the acceptor signal (GFP, emission at 520 nm) to the donor signal (terbium, emission at 495 nm). Values were plotted against the inhibitor concentration and fitted to a sigmoid dose-response curve using GraphPad software.

PIM-1 = target: T3, PIM-1 (Homo sapiens, UniProt P11309); experiment: PIM-1 biochemical assay (ADP Hunter)
T3 construct: histidine tag (C); made in house
T3 sequence (P11309 whole entry): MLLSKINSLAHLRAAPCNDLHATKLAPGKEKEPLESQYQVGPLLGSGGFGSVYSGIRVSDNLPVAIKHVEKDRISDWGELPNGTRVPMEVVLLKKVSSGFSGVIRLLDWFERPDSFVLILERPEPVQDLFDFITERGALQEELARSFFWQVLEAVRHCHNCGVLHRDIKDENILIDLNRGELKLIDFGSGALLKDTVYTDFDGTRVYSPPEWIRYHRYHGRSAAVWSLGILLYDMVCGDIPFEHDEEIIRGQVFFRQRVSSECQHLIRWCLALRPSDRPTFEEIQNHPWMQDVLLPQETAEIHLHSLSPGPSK
From the text: The biochemical assay to measure PIM-1 activity relies on the ADP Hunter assay kit (DiscoveRx Corp., Cat. #90-0077), that determines the amount of ADP as direct product of the kinase enzyme activity.
The enzyme has been expressed and purified in-house as a recombinant human protein with a C-terminal histidine tag. The protein is active and stable.
Assay conditions were as indicated by the kit manufacturers with the following adaptations for the kinase activity step: • Kinase assay buffer and assay volume stay as recommended (15 mM HEPES, pH 7.4, 20 mM NaCl, 1 mM EGTA, 0.02% Tween 20, 10 mM MgCl2 and 0.1 mg/ml bovine γ-globulins/75 μl assay volume) • Incubation time and temperature: 60 min at 30° C. • PIM-1 concentration: 50 pg/μl • ATP concentration: 100 μM • PIM-1 substrate peptide: PIMtide ([…]) (SEQIDNO. 1) • Peptide concentration: 60 μM • Positive control for kinase activity inhibition: 1-10 μM Staurosporine • DMSO concentration have to stay below 2% during the kinase reaction
Assays were performed in either 96 or 384-well plates. The final outcome of the coupled reactions provided by the kit is the release of the fluorescent product Resorufin and has been measured with a multilabel HTS counter VICTOR V (PerkinElmer) using an excitation filter at 544 nm and an emission filter at 580 nm.

[1] = read-out: PI3K alpha activity, IC50 (semi-quantitative class)
[2] = read-out: mTOR activity, IC50 (semi-quantitative class)
[3] = PIM1, read-out: PIM-1 activity, IC50 (semi-quantitative class)
[4] = PIM1, read-out: PIM-1 actual IC50 (in parentheses)
[5] = read-out: PI3K alpha actual IC50 (in parentheses)
[6] = read-out: mTOR actual IC50 (in parentheses)
[7] = read-out: PI3K alpha activity (semi-quantitative IC50)
[8] = read-out: mTOR activity (semi-quantitative IC50)
[9] = read-out: PIM-1 activity (semi-quantitative IC50)
[10] = read-out: PIM-1 IC50 (in parentheses)
[11] = read-out: PI3K alpha IC50 (in parentheses)
[12] = read-out: mTOR IC50 (in parentheses)

T1 sequence (P42336 whole entry): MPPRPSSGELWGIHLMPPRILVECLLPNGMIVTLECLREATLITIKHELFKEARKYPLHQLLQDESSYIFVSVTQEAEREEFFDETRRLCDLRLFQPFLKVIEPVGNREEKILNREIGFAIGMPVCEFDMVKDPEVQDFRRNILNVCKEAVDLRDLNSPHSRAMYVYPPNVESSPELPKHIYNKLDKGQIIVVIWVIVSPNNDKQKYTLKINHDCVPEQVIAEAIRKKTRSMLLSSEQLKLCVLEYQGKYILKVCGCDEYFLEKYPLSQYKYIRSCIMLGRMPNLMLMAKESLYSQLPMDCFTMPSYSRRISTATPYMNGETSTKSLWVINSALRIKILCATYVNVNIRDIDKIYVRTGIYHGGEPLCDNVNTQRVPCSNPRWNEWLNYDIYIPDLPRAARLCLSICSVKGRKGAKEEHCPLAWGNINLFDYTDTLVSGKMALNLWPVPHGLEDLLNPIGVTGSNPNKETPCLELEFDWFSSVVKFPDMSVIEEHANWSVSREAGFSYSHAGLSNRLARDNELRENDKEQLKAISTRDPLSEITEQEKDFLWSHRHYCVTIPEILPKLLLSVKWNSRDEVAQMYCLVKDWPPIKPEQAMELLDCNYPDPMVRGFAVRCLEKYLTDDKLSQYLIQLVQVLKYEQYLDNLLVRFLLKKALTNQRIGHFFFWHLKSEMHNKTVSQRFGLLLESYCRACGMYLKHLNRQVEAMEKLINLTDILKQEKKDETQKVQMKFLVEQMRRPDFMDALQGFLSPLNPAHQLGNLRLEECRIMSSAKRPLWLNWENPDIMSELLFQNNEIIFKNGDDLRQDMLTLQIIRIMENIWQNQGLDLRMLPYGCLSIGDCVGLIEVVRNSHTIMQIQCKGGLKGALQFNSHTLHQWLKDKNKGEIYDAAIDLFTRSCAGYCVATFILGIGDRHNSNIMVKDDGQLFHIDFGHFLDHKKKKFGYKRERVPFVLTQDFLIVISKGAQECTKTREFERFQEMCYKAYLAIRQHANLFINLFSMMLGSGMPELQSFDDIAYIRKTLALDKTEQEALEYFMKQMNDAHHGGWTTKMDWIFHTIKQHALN
T1 sequence (P27986 whole entry partner): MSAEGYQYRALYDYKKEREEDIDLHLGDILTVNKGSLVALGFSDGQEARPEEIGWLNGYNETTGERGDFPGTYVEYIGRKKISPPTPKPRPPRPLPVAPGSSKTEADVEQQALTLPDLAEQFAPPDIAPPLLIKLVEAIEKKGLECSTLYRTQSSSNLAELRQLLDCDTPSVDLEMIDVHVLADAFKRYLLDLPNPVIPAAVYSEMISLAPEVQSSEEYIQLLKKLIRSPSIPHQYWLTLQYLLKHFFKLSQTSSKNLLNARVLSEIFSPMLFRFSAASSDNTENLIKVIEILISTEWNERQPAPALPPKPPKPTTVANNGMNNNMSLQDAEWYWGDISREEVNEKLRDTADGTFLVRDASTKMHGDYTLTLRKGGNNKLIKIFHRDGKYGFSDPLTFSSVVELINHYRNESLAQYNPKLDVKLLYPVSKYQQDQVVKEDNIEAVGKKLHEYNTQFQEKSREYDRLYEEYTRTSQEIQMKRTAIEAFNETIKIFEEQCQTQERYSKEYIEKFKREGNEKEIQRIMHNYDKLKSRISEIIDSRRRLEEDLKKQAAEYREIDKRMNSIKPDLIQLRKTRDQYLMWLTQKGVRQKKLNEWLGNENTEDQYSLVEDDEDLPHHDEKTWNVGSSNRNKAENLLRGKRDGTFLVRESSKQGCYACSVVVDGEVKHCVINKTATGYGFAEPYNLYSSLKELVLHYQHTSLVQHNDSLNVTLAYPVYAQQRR

| Structure (SMILES) | IC50 (PI3K (p110α/p85α); [1]) [nM] | IC50 (mTOR; [2]) [nM] | IC50 (PIM-1; [3]) [nM] | IC50 (PI3K (p110α/p85α); [7]) [nM] | IC50 (mTOR; [8]) [nM] | IC50 (PIM-1; [9]) [nM] | other results |
| --- | --- | --- | --- | --- | --- | --- | --- |
| COc1ncc2cc1NS(=O)(=O)c1cccc(c1)C(=O)NCc1cncc(c1)-c1nc(C(C)C)nc3c1SC2=C3 [compound 60] | > 1000 | > 1000 | > 1000 | – | – | – | – |
| COc1ncc2cc1NS(=O)(=O)c1cccc(c1)C(=O)NCCn1cc(cn1)-c1nc(C(C)C)nc3c1SC2=C3 [compound 61] | > 1000 | > 1000 | > 1000 | – | – | – | – |
| COc1ncc2cc1NS(=O)(=O)c1cccc(c1)C(=O)NCc1cncc(c1)-c1ccnc3c1SC2=C3 [compound 62] | 100 to 1000 | > 1000 | < 100 | – | – | – | IC50 (PIM-1; [4]): 31 nM |
| COc1ncc2cc1NS(=O)(=O)c1cccc(c1)C(=O)NC[C@H]1CN(CCO1)c1ncnc3c1SC2=C3 [compound 64] | > 1000 | > 1000 | 100 to 1000 | – | – | – | – |
| COc1ncc2cc1NS(=O)(=O)c1cccc(c1)C(=O)NCc1cc(ccc1F)-c1ncnc3c1SC2=C3 [compound 65] | 100 to 1000 | > 1000 | > 1000 | – | – | – | – |
| COc1ncc2cc1NS(=O)(=O)c1cccc(c1)C(=O)NC[C@@H]1CN(CCO1)c1ncnc3c1SC2=C3 [compound 66] | 100 to 1000 | > 1000 | < 100 | – | – | – | IC50 (PIM-1; [4]): 88 nM |
| COc1ncc2cc1NS(=O)(=O)c1cc(c(F)cc1F)C(=O)NCc1cccc(c1)-c1cnn3ccc-2nc13 [compound 67] | < 100 | < 100 | > 1000 | – | – | – | IC50 (PI3K (p110α/p85α); [5]): 0.5 nM; IC50 (mTOR; [6]): 12 nM |
| COc1ncc2cc1NS(=O)(=O)c1cccc(c1)C(=O)NCC1=CC=C(O1)c1ncnc3c1SC2=C3 [compound 69] | 100 to 1000 | > 1000 | 100 to 1000 | – | – | – | – |
| COc1ncc2cc1NS(=O)(=O)c1cccc(c1)C(=O)NCCCNc1ncnc3c1SC2=C3 [compound 70] | > 1000 | > 1000 | 100 to 1000 | – | – | – | – |
| COc1ncc2cc1NS(=O)(=O)c1cc(c(F)cc1F)C(=O)NCc1cncc(c1)-c1ccnc3ccc-2nc13 [compound 71] | < 100 | < 100 | > 1000 | – | – | – | IC50 (PI3K (p110α/p85α); [5]): 0.15 nM; IC50 (mTOR; [6]): 25 nM |
| COc1ncc2cc1NS(=O)(=O)c1cccc(c1)C(=O)NCc1cc(F)cc(c1)-c1ncnc3c1SC2=C3 [compound 72] | > 1000 | > 1000 | 100 to 1000 | – | – | – | – |
| COc1ncc2cc1NS(=O)(=O)c1cccc(c1)C(=O)NCC1=CC=C(S1)c1c(C#N)cnc3c1SC2=C3 [compound 73] | > 1000 | > 1000 | < 100 | – | – | – | IC50 (PIM-1; [4]): 45 nM |
| COc1ncc2cc1NS(=O)(=O)c1cccc(c1)C(=O)NCc1csc(c1)-c1ncnc3c1SC2=C3 [compound 77] | 100 to 1000 | > 1000 | < 100 | – | – | – | IC50 (PIM-1; [4]): 17 nM |
| COc1ncc2cc1NS(=O)(=O)c1cccc(c1)C(=O)NCC1=CC=C(S1)c1ccnc3[nH]c-2cc13 [compound 78] | 100 to 1000 | > 1000 | 100 to 1000 | – | – | – | – |
| COc1ncc2cc1NS(=O)(=O)c1cccc(c1)C(=O)NCc1nc(cs1)-c1ncnc3c1SC2=C3 [compound 79] | 100 to 1000 | > 1000 | > 1000 | – | – | – | – |
| COc1ncc2cc1NS(=O)(=O)c1cccc(c1)C(=O)NCC1=CC=C(S1)c1ccnc3c1SC2=C3 [compound 80] | 100 to 1000 | > 1000 | < 100 | – | – | – | IC50 (PIM-1; [4]): 15 nM |
| COc1ncc2cc1NS(=O)(=O)c1ccc(F)c(c1)C(=O)NCC1=CC=C(S1)c1ncnc3c1SC2=C3 [compound 82] | < 100 | > 1000 | < 100 | – | – | – | IC50 (PI3K (p110α/p85α); [5]): 57 nM; IC50 (PIM-1; [4]): 13 nM |
| COc1ncc2cc1NS(=O)(=O)c1cccc(c1)C(=O)NC[C@H]1CCCN(C1)c1ncnc3c1SC2=C3 [compound 83] | > 1000 | > 1000 | 100 to 1000 | – | – | – | – |
| COc1ncc2cc1NS(=O)(=O)c1cccc(c1)C(=O)NC[C@@H]1CCCN(C1)c1ncnc3c1SC2=C3 [compound 84] | > 1000 | > 1000 | 100 to 1000 | – | – | – | – |
| O=C1NCc2cccc(c2)-c2cnn3ccc(nc23)-c2cnc(O)c(c2)NS(=O)(=O)c2cccc1c2 [compound 85] | – | – | – | 100 to 1000 | > 1000 | > 1000 | – |
| COc1ncc2cc1NS(=O)(=O)c1cccc(c1)C(=O)NC[C@@H]1CCN(C1)c1ncnc3c1SC2=C3 [compound 86] | – | – | – | > 1000 | > 1000 | 100 to 1000 | – |
| COc1ncc2cc1NS(=O)(=O)c1cccc(c1)C(=O)NC[C@H]1CCN(C1)c1ncnc3c1SC2=C3 [compound 87] | – | – | – | > 1000 | > 1000 | 100 to 1000 | – |
| COc1ncc2cc1NS(=O)(=O)c1cccc(c1)C(=O)NCC1=C(C)C=C(S1)c1ncnc3c1SC2=C3 [compound 88] | – | – | – | 100 to 1000 | > 1000 | < 100 | IC50 (PIM-1; [10]): 69 nM |
| COc1ncc2cc1NS(=O)(=O)c1cccc(c1)C(=O)NCc1ccncc1-c1ncnc3c1SC2=C3 [compound 89] | – | – | – | > 1000 | > 1000 | > 1000 | – |
| COc1ncc2cc1NS(=O)(=O)c1ccc(F)c(c1)C(=O)NCC1=CC=C(S1)c1ncnc3c1SC2=C3C [compound 90] | – | – | – | < 100 | < 100 | < 100 | IC50 (PI3K (p110α/p85α); [11]): 1.8 nM; IC50 (mTOR; [12]): 56 nM; IC50 (PIM-1; [10]): 27 nM |
| COc1ncc2cc1NS(=O)(=O)c1cccc(c1)C(=O)NC[C@@H]1CN(CCO1)c1ncnc3c1SC2=C3C [compound 91] | – | – | – | < 100 | 100 to 1000 | < 100 | IC50 (PI3K (p110α/p85α); [11]): 10 nM; IC50 (PIM-1; [10]): 47 nM |
| COc1ncc2cc1NS(=O)(=O)c1cccc(c1)C(=O)NCc1cc(F)cc(c1)-c1ncnc3c1SC2=C3C [compound 92] | – | – | – | < 100 | > 1000 | > 1000 | IC50 (PI3K (p110α/p85α); [11]): 15 nM |
| COCCOc1ccc2cc1C(=O)NCC1=CC=C(S1)c1ncnc3c1SC(=C3)c1cnc(OC)c(c1)NS2(=O)=O [compound 93] | – | – | – | 100 to 1000 | < 100 | > 1000 | IC50 (mTOR; [12]): 32 nM |
